Common to all, as to experiment: inhibition of tumour cell growth, NCI panel, 48 h
Assay [1] deals with UACC-257 melanoma.
Assay [2] deals with T-47D breast.
Assay [3] relates to HCC-2998 colon.
For assay [4], the system named is TK-10 renal.
The subject of assay [5] is COLO 205 colon.
Assay [6] concerns HS 578T breast.
Assay [7] deals with SK-OV-3 ovarian.
Assay [8] concerns MALME-3M melanoma.
Assay [9] has as its system SK-MEL-28 melanoma.
In assay [10] the test system is IGROV1 ovarian.
Assay [11] deals with UACC-62 melanoma.
In assay [12] the test system is RXF 393 renal.
Assay [13] has as its system DU-145 prostate.
Assay [14] relates to M14 melanoma.
Assay [15] relates to SK-MEL-5 melanoma.
The test system of assay [16] is CAKI-1 renal.
Assay [17] relates to OVCAR-8 ovarian.
Assay [18] deals with SF-539 CNS.
Assay [19] deals with SR leukemia.

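48-hour exposure; five concentrations; linearly interpolated endpoints. TGI: total growth inhibition.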 Where a SMILES comes first, the peptide text is derived from it. [ ]: non-standard residue; d: D form. ΔPro = O=C(O)[CH]1C=CCN1

For the compound `CCN(CC)CCNc1ccc2ncn3c4ccc(OC)cc4c(=O)c1c23`, the TGI in assay [1] was 28.3 µM; in [2], 40.5 µM; in assay [3], 13.7 µM; in assay [4], 29.2 µM; in [5] it was 15.5 µM; in assay [6], 30.4 µM. Moreover, the TGI in assay [7] turned out to be 23.8 µM; in assay [8], 25.1 µM; in [9], 28.4 µM; in assay [10], 28.1 µM; in [11], 33.9 µM; in [12], 7.69 µM. Further, the TGI in assay [13] stood at 20.7 µM; in [14] it was 11.7 µM; in assay [15], 20 µM; in assay [16] it was 21 µM; in assay [17], 11.8 µM; in [18], 20 µM. Further, the TGI in assay [19] is above 22.7 µM.

`O=S1SC(=S)C2C=CC=NC21` (centres undefined): the TGI stood at 29 µM in assay [1]; 58.9 µM in assay [2]; 28.8 µM in [3]; 32.2 µM in assay [4]; 40.3 µM in assay [5]; 61.4 µM in assay [6]. Further, the TGI in assay [7] is above 100 µM; in [8] it was 36.3 µM; in assay [9] it was above 100 µM; in assay [10], 49.6 µM; in [11], 40.2 µM; in assay [12], 32.5 µM. The TGI was 31.4 µM in assay [13]; 29.6 µM in assay [14]; 53.2 µM in assay [15]; above 100 µM in assay [16]; 79 µM in assay [17]; 33.3 µM in assay [18]. This compound also registered a TGI in [19] of 77.7 µM.

`CCCCCCCCOC(=O)C12Oc3ccc(-c4ccc5c(c4O)C(O)=C4C(=O)CC(C)C(O)C4(C(=O)OCCCCCCCC)O5)c(O)c3C(O)=C1C(=O)CC(C)C2O` (centres undefined): the TGI in assay [1] is above 100 µM; in [2] it was above 100 µM; in assay [3] it was above 100 µM; in assay [4], above 100 µM; in [5], 65.3 µM; in [6] it was above 100 µM. Further, the TGI was above 100 µM in [7]; above 100 µM in assay [8]; above 100 µM in [9]; 61.3 µM in [10]; 99.3 µM in assay [11]; 11.3 µM in assay [12]. Also, the TGI is above 100 µM in assay [13]; above 100 µM in assay [14]; 48.7 µM in assay [15]; 64.3 µM in assay [16]; 35 µM in assay [17]; 19.7 µM in [18]. In [19], this compound showed a TGI of 20.3 µM.

As for `CC(Br)CN1CCOCC1` (centres undefined), the TGI in assay [1], in assay [2], in assay [3], in assay [4], in [5] and in assay [6] was above 100 µM each time. In addition, the TGI in assay [7], in [8], in assay [9], in assay [10], in assay [11] and in [12] was above 100 µM each time. The TGI in assay [13], in assay [14], in assay [15], in [16], in [17] and in [18] was above 100 µM each time. The same compound registered a TGI in [19] above 100 µM.

Turning to `O=C(O)C1C=CCN1C(=O)C1C=CCN1C(=O)C1C=CCN1` (centres undefined) (H-[ΔPro]-[ΔPro]-[ΔPro]-OH; configuration not given here), the TGI in assay [1], in assay [2], in [3], in assay [4], in assay [5] and in assay [6] was above 100 µM throughout. Moreover, the TGI in assay [7], in assay [8], in assay [9], in [10], in assay [11] and in assay [12] was above 100 µM each time. Moreover, the TGI in [13], in assay [14], in assay [15], in assay [16], in assay [17] and in assay [18] was above 100 µM throughout. Moreover, the TGI in assay [19] was above 100 µM.

Turning to `CCN(CC)C1Oc2cc3c(cc2C(c2cc(OC)c(O)c(OC)c2)C1C)OCO3` (centres undefined), the TGI is above 100 µM in assay [1]; above 73.4 µM in assay [2]; 21.4 µM in assay [3]; 72.5 µM in [4]; 31.8 µM in [5]; 50.9 µM in assay [6]. Moreover, the TGI in assay [7] was 66.3 µM; in assay [8], 30 µM; in [9] it was 44.2 µM; in [10] it was 50 µM; in assay [11] it was 26.2 µM; in assay [12], above 31.5 µM. Besides, the TGI in assay [13] was above 89.3 µM; in assay [14], 20.4 µM; in assay [15], 30.7 µM; in assay [16], above 72.9 µM; in assay [17] it was 38.8 µM; in [18], 34.7 µM. Further, in assay [19], the TGI amounted to 32.7 µM.

(Values after PubChem BioAssay (NCI).)
